Assay results published in ChEMBL document CHEMBL4052645, “Discovery of potent and efficacious pyrrolopyridazines as dual JAK1/3 inhibitors” (Bioorg Med Chem Lett, 2017).
Activity calls are given as the source filed them. The calls are words filed in the database; no cut-off is given here.

Legend:
[1] = target: Megakaryocyte-associated tyrosine-protein kinase (Homo sapiens) (UniProt P42679); assay: Inhibition of wild-type human full length CTK (M43 to P508 residues) expressed in mammalian expression system assessed as residual activity at 50 nM by Kinomescan method relative to control
[2] = target: Serine/threonine-protein kinase PAK 5 (Homo sapiens) (UniProt Q9P286); assay: Inhibition of wild-type human partial length PAK5 (Y400 to H719 residues) expressed in bacterial expression system assessed as residual activity at 50 nM by Kinomescan method relative to control
[3] = Tmax in BALB/c mouse at 10 mg/kg, po; type: ADME, organism-based; details: in vivo
[4] = target: Protein kinase C iota type (Homo sapiens) (UniProt P41743); assay: Inhibition of recombinant human PKCiota (H215 to V587 residues) expressed in mammalian expression system assessed as residual activity at 50 nM by Kinomescan method relative to control
[5] = Volume of distribution at steady state in BALB/c mouse at 2 mg/kg, iv; type: ADME, organism-based; details: in vivo, read-out: Vdss
[6] = tested on: Rattus norvegicus; assay: Cardiotoxicity in rat assessed as decrease in mean arterial blood pressure at 200 mg/kg; type: toxicity, organism-based; details: in vivo
[7] = target: Calcium/calmodulin-dependent protein kinase kinase 1 (Homo sapiens) (UniProt Q8N5S9); assay: Inhibition of wild-type human partial length CAMKK1 (R65 to E414 residues) expressed in bacterial expression system assessed as residual activity at 50 nM by Kinomescan method relative to control
[8] = Protein binding in human plasma; type: ADME, cell-free; details: read-out: PPB (converted)
[9] = Volume of distribution at steady state in Sprague-Dawley rat at 2 mg/kg, iv; type: ADME, organism-based; details: in vivo, read-out: Vdss
[10] = target: Voltage-gated inwardly rectifying potassium channel KCNH2 (Homo sapiens, UniProt Q12809); assay: Inhibition of human ERG by flux-based assay
[11] = target: Serine/threonine-protein kinase STK11 (Homo sapiens) (UniProt Q15831); assay: Inhibition of wild-type human full length LKB1 (M1 to Q433 residues) expressed in bacterial expression system assessed as residual activity at 50 nM by Kinomescan method relative to control
[12] = target: Calcium/calmodulin-dependent protein kinase type 1 (Homo sapiens) (UniProt Q14012); assay: Inhibition of wild-type human full length CAMK1A (M1 to L370 residues) expressed in bacterial expression system assessed as residual activity at 50 nM by Kinomescan method relative to control
[13] = target: Tyrosine-protein kinase JAK1 (Homo sapiens, UniProt P23458); assay: Inhibition of wild-type human partial length JAK1 JH2 pseudokinase domain (R537 to D855 residues) expressed in mammalian expression system assessed as residual activity at 50 nM by Kinomescan method relative to control
[14] = target: Phosphatidylinositol 4,5-bisphosphate 3-kinase catalytic subunit delta isoform (Homo sapiens) (UniProt O00329); assay: Inhibition of wild-type human partial length PIK3CD (R108 to Q1044 residues) expressed in mammalian expression system assessed as residual activity at 50 nM by Kinomescan method relative to control
[15] = AUC in BALB/c mouse at 10 mg/kg, po; type: ADME, organism-based; details: in vivo
[16] = target: Serine/threonine-protein kinase Nek6 (Homo sapiens) (UniProt Q9HC98); assay: Inhibition of wild-type human full length NEK6 (M8 to T313 residues) expressed in bacterial expression system assessed as residual activity at 50 nM by Kinomescan method relative to control
[17] = target: Cyclin-dependent kinase-like 2 (Homo sapiens) (UniProt Q92772); assay: Inhibition of wild-type human partial length CDKL2 (M1 to D327 residues) expressed in bacterial expression system assessed as residual activity at 50 nM by Kinomescan method relative to control
[18] = target: Cyclin-dependent kinase 15 (Homo sapiens) (UniProt Q96Q40); assay: Inhibition of wild-type human full length PFTAIRE2 (M1 to W384 residues) expressed in bacterial expression system assessed as residual activity at 50 nM by Kinomescan method relative to control
[19] = species: Homo sapiens; assay: Inhibition of sodium channel (unknown origin) at 10 uM by patch clamp assay
[20] = tested on: Mitogen-activated protein kinase kinase kinase 12; assay: Inhibition of wild-type human full length DLK (M1 to P859 residues) expressed in mammalian expression system assessed as residual activity at 50 nM by Kinomescan method relative to control
[21] = target: Serine/threonine-protein kinase PAK 6 (Homo sapiens) (UniProt Q9NQU5); assay: Inhibition of wild-type human partial length PAK6 (N298 to C681 residues) expressed in bacterial expression system assessed as residual activity at 50 nM by Kinomescan method relative to control
[22] = Half life in Sprague-Dawley rat at 2 mg/kg, iv; type: ADME, organism-based; details: in vivo
[23] = target: Serine/threonine-protein kinase PLK4 (Homo sapiens) (UniProt O00444); assay: Inhibition of wild-type human partial length PLK4 (M1 to S273 residues) expressed in mammalian expression system assessed as residual activity at 50 nM by Kinomescan method relative to control
[24] = Inhibition of ACTR2 (unknown origin) assessed as residual activity at 50 nM by Kinomescan method relative to control; details: Homo sapiens
[25] = Permeability from apical side to basolateral side in human Caco2 cells; type: ADME, cell-based; details: Caco-2, read-out: permeability
[26] = target: Serine/threonine-protein kinase DCLK2 (Homo sapiens) (UniProt Q8N568); assay: Inhibition of wild-type human partial length DCAMKL2 (K273 to V664 residues) expressed in bacterial expression system assessed as residual activity at 50 nM by Kinomescan method relative to control
[27] = Cmax in Sprague-Dawley rat at 10 mg/kg, po; type: ADME, organism-based; design: dose 10 mg/kg, route oral; details: in vivo
[28] = target: Rho-associated protein kinase 2 (Homo sapiens, UniProt O75116); assay: Inhibition of Rho-associated protein kinase 2 (unknown origin)
[29] = Half life in Sprague-Dawley rat at 10 mg/kg, po; type: ADME, organism-based; details: in vivo
[30] = Half life in BALB/c mouse at 10 mg/kg, po; type: ADME, organism-based; details: in vivo
[31] = Oral bioavailability in Sprague-Dawley rat at 10 mg/kg; type: ADME, organism-based; details: in vivo
[32] = tested on: Oryctolagus cuniculus; assay: Cardiotoxicity in rabbit assessed as increase in heart rate at >3 mg/kg; type: toxicity, organism-based; details: in vivo
[33] = target: Mitogen-activated protein kinase 9 (Homo sapiens) (UniProt P45984); assay: Inhibition of wild-type human full length JNK2 (M1 to Q382 residues) expressed in mammalian expression system assessed as residual activity at 50 nM by Kinomescan method relative to control
[34] = Drug concentration in mouse at 10 mg/kg, po qd after 24 hrs; type: ADME, organism-based; details: in vivo, read-out: Drug uptake
[35] = species: Mus musculus; assay: animal or person; details: Balb/c, 24 h
[36] = tested on: Mus musculus; assay: Antiarthritic activity in collagen-induced arthritis mouse model assessed as reduction in inflammation at 10 mg/kg, po qd measured up to 41 days; type: functional, organism-based

Sequence of Calcium/calmodulin-dependent protein kinase kinase 1 (Homo sapiens) (Q8N5S9 whole entry, looked up, the tested form may be a part): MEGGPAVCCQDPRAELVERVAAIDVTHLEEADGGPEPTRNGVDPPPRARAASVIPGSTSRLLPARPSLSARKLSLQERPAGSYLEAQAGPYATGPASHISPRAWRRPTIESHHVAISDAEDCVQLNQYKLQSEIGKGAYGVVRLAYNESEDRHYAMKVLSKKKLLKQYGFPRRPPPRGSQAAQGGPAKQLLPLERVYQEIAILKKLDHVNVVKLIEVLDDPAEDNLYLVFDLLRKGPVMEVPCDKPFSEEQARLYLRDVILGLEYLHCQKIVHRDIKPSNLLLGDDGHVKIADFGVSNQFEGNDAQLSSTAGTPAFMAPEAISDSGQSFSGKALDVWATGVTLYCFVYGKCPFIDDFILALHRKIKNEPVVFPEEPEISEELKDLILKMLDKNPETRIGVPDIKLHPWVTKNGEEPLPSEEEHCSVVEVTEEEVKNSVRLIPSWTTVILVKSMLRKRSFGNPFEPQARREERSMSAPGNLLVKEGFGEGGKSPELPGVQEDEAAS
Sequence of Serine/threonine-protein kinase Nek6 (Homo sapiens) (Q9HC98 whole entry, the tested form may be a part): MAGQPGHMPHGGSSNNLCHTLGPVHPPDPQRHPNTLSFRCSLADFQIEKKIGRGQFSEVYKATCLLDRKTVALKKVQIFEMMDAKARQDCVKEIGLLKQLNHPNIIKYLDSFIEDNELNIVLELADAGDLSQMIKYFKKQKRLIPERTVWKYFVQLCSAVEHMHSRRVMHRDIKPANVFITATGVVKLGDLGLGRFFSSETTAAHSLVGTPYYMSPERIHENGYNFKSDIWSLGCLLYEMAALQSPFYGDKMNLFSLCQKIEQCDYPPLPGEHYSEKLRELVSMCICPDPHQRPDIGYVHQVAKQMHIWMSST
Sequence of Megakaryocyte-associated tyrosine-protein kinase (Homo sapiens) (P42679 whole entry, the tested form may be a part): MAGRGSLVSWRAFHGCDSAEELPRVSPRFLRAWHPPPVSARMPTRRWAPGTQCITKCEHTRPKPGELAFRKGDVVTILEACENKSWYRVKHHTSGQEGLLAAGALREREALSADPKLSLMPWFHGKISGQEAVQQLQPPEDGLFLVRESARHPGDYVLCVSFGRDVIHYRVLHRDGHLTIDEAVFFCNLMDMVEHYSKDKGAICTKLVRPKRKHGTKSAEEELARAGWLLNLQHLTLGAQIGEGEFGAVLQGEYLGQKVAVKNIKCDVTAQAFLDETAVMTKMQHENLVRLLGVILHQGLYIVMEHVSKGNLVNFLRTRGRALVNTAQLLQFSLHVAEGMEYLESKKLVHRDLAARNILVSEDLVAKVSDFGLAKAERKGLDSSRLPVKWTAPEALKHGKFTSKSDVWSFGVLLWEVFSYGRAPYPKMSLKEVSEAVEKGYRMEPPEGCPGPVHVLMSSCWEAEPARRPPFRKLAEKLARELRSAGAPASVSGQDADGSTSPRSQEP
Sequence of Cyclin-dependent kinase 15 (Homo sapiens) (Q96Q40 whole entry, the tested form may be a part): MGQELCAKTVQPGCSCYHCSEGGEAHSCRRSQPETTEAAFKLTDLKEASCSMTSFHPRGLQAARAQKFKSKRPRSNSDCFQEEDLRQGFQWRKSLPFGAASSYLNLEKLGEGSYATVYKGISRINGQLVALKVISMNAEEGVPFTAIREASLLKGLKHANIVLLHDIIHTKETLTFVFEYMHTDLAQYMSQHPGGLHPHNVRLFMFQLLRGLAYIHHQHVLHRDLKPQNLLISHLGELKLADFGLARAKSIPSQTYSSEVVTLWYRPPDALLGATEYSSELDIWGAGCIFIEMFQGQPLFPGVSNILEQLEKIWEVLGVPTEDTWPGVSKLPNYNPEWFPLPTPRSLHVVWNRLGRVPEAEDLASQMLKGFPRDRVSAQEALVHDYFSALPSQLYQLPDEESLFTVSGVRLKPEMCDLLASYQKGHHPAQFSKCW
Sequence of Serine/threonine-protein kinase PAK 5 (Homo sapiens) (Q9P286 whole entry, looked up, the tested form may be a part): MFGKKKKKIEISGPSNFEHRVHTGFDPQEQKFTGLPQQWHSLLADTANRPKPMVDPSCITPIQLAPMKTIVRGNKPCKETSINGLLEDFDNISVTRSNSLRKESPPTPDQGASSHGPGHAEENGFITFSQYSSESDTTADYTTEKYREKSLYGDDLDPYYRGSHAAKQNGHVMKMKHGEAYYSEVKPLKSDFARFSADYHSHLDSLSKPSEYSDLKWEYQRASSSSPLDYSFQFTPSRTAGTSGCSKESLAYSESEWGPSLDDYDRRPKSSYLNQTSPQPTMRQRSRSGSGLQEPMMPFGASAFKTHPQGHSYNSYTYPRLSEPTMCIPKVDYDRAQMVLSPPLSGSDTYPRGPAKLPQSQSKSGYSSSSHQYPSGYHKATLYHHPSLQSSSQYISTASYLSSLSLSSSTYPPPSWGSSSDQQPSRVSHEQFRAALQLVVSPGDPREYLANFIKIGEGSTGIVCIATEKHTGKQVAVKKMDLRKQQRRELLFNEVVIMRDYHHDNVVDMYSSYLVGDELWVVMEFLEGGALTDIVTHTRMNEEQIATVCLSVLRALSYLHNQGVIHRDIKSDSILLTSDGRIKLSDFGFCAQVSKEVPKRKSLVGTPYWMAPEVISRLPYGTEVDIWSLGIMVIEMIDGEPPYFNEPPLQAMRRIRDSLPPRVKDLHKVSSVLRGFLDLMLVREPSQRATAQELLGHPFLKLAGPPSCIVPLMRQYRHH
Sequence of Phosphatidylinositol 4,5-bisphosphate 3-kinase catalytic subunit delta isoform (Homo sapiens) (O00329 whole entry, the tested form may be a part, canonical isoform): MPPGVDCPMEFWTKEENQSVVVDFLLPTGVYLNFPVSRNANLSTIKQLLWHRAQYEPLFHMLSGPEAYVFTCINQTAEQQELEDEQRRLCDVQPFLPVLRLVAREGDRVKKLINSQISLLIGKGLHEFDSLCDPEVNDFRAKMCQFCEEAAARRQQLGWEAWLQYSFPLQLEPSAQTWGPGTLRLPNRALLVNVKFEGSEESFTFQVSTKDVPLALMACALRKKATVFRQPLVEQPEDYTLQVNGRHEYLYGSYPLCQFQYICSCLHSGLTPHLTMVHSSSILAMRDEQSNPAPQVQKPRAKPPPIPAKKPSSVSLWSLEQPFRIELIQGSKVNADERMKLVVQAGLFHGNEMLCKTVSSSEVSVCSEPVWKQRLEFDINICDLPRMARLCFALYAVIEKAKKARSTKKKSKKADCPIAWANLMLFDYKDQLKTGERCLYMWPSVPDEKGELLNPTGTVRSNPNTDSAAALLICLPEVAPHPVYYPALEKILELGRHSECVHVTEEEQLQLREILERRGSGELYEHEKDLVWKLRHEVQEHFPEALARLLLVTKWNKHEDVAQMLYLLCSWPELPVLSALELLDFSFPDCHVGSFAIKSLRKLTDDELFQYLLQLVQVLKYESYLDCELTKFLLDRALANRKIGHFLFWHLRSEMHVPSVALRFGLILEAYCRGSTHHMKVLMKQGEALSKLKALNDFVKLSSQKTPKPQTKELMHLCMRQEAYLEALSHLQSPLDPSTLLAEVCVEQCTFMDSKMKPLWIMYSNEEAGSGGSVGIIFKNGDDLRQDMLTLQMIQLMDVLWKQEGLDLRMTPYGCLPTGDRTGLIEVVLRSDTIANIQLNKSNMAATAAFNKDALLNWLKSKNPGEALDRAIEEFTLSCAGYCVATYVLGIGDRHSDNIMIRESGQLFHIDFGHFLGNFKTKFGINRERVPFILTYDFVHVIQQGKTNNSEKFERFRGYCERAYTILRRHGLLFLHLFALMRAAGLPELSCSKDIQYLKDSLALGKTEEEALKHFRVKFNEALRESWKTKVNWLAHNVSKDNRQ
Sequence of Tyrosine-protein kinase JAK1 (P23458 whole entry, the tested form may be a part, canonical isoform): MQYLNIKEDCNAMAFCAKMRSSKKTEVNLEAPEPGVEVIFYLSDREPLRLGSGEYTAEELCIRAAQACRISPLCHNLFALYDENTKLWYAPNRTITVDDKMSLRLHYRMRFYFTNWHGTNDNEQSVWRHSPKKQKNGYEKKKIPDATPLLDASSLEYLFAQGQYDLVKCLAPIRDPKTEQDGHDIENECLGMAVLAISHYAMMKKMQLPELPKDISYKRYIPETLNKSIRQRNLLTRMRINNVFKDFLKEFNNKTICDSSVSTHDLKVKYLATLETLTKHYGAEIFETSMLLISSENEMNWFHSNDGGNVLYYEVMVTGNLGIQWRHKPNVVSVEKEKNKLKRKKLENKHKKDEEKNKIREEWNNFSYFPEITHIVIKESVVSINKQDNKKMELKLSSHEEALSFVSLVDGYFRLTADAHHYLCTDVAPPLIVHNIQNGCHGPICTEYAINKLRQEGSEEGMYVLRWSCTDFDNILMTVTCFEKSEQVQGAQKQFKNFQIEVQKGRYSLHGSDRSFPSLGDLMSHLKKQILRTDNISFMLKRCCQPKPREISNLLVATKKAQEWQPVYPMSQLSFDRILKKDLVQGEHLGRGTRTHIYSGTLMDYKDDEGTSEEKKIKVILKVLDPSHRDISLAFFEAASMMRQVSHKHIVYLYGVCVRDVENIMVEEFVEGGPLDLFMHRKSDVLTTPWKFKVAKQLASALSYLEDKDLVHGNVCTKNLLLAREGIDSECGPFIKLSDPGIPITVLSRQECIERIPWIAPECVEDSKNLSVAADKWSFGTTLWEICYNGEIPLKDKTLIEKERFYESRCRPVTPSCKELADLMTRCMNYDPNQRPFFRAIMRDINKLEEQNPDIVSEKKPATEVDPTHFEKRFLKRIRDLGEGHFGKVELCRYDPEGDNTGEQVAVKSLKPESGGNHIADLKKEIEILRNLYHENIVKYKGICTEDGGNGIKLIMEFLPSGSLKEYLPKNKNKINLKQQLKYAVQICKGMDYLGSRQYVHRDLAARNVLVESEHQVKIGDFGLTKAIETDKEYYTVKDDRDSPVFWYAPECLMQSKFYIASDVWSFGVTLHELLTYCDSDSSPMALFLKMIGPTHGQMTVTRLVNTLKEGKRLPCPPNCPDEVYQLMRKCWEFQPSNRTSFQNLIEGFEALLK
Sequence of Calcium/calmodulin-dependent protein kinase type 1 (Homo sapiens) (Q14012 whole entry, looked up, the tested form may be a part): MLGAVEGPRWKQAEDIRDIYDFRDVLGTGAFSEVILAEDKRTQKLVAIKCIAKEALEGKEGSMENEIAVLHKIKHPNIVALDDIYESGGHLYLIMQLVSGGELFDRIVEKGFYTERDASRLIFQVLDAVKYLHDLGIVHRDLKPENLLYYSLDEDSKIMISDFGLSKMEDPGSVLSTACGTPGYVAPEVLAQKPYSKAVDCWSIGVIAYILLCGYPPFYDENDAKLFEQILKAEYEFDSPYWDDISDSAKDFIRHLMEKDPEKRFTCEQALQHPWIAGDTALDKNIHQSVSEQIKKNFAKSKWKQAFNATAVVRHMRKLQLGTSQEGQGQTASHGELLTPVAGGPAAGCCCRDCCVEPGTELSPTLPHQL

COc1ccc(-c2cc3c(N[C@@H]4CC[C@](C)(N)C4(C)C)c(C(N)=O)cnn3c2)cn1
Activity [1]: 85%
Activity [2]: 68%
Tmax [3]: 4 h
Activity [4]: 100%
Vd [5]: 8.2 L/kg
Activity [6]: Toxic
Activity [7]: 100%
fraction unbound [8]: 0.1
Vd [9]: 11.5 L/kg
IC50 [10]: > 80000 nM
Activity [11]: 100%
Activity [12]: 100%
Activity [13]: 78%
Activity [14]: 100%
AUC [15]: 17.9 µM·h
Activity [16]: 97%
Activity [17]: 93%
Activity [18]: 90%
inhibition [19]: 71%
Activity [20]: 81%
Activity [21]: 87%
half-life [22]: 9.8 h
Activity [23]: 100%
Activity [24]: 100%
Papp A→B [25]: 2.6 ×10⁻⁶ cm/s
Activity [26]: 100%
Cmax [27]: 600 nM
IC50 [28]: 43 nM
half-life [29]: 12.2 h
half-life [30]: 10.2 h
bioavailability [31]: 44%
Activity [32]: Toxic
Activity [33]: 88%

CC1(C)[C@H](Nc2c(C(N)=O)cnn3cc(-c4ccccc4)cc23)CC[C@]1(C)N
concentration at 24 h [34]: 390 nM
Activity [1]: 95%
Activity [2]: 50%
Activity [7]: 92%
IC50 [35]: 270 nM
Activity [14]: 44%
Activity [16]: 88%
Activity [18]: 100%
Activity [36]: Active
